What was measured:
[1] = target: GNAQ/GNA11 (Homo sapiens) (UniProt P50148+P29992); test: Inhibition of Galphaq/11 (unknown origin) expressed in CHO-M1 cells at 10 uM preincubated for 1 hr followed by carbachol stimulation for 30 mins and measured after 1 hr by IP1 accumulation based HTRF assay relative to control; type: cell-based; details: time 150.0 min
[2] = Antiproliferative activity against human MP41 cells assessed as reduction in cell viability measured after 72 hrs by CCK-8 method; type: functional, cell-based; details: MP41, 72 h
[3] = Antiproliferative activity against human 921 cells assessed as reduction in cell viability measured after 72 hrs by CCK-8 method; type: functional, cell-based; details: Homo sapiens, 921, 72 h

Structure (SMILES) | inhibition [1] [%] | IC50 [2] [µM] | IC50 [3] [µM]
CC[C@H](C)[C@H](N)C(=O)N1CCn2cc(-c3cccc(S(C)(=O)=O)c3)nc2[C@@H]1CC1CCCCC1 | 13 | > 40 | > 40
CC[C@H](C)[C@H](N)C(=O)N1CCn2cc(-c3cccc([N+](=O)[O-])c3)nc2[C@@H]1CC1CCCCC1 | 17.5 | 10.1 | 12.2
CC[C@H](C)[C@H](N)C(=O)N1CCn2cc(-c3ccc4c(c3)CCCC4)nc2[C@H]1CC(C)C | 3.6 | 13.9 | 8.3
CC[C@H](C)[C@H](N)C(=O)N1CCn2cc(-c3ccc4c(c3)OCO4)nc2[C@@H]1CC1CCCCC1 | 20.2 | 12.8 | 18.5
c1cc2c(cc1-c1cn3c(n1)[C@H](CC1CCCCC1)N(CCNC1CCCC1)CC3)CCCC2 | 10.8 | 9.7 | 6.4
CC[C@H](C)[C@H](N)C(=O)N1CCn2cc(-c3cc(Cl)c(Cl)c(Cl)c3)nc2[C@@H]1CC1CCCCC1 | 13.2 | 7.8 | 5.9
CC(C)(C)NCCN1CCn2cc(-c3ccc4c(c3)CCCC4)nc2[C@@H]1CC1CCCCC1 | 6.9 | 8.7 | 5.2
CC[C@H](C)[C@H](N)C(=O)N1CCn2cc(-c3cccc(C#N)c3)nc2[C@@H]1CC1CCCCC1 | 20.8 | 9.9 | 34.5
CC[C@H](C)[C@H](N)C(=O)N1CCn2cc(-c3cccc(C)c3)nc2[C@@H]1CC1CCCCC1 | 29.5 | 6.2 | 24.3
CC[C@H](C)[C@H](N)C(=O)N1CCn2cc(-c3cccc(OC(F)(F)F)c3)nc2[C@@H]1CC1CCCCC1 | 12.4 | > 40 | > 40
CN(C)CCN1CCn2cc(-c3ccc4c(c3)CCCC4)nc2[C@@H]1CC1CCCCC1 | 17.1 | 9.3 | 4.9
CC[C@H](C)[C@H](N)C(=O)N1CCn2cc(-c3cccc(C)c3C)nc2[C@@H]1CC1CCCCC1 | 13.7 | 12.8 | 7
CC[C@H](C)[C@H](N)C(=O)N1CCn2cc(-c3cccc(F)c3)nc2[C@@H]1CC1CCCCC1 | 17.8 | 19.8 | 5
CC[C@H](C)[C@H](N)C(=O)N1CCn2cc(-c3ccc4c(c3)CCCC4)nc2[C@@H]1C(C)C | 9.4 | 19.8 | 13
CC[C@H](C)[C@H](N)C(=O)N1CCn2cc(-c3cccc(C(=O)O)c3)nc2[C@@H]1CC1CCCCC1 | 8.5 | > 40 | > 40
CC[C@H](C)[C@H](N)C(=O)N1CCn2cc(-c3cccc(Br)c3)nc2[C@@H]1CC1CCCCC1 | 21.9 | 10.6 | 8.4
CC[C@H](C)[C@H](N)C(=O)N1CCn2cc(-c3cc(Cl)cc(Cl)c3)nc2[C@@H]1CC1CCCCC1 | 12.8 | 10.9 | 10.1
CC[C@H](C)[C@H](N)C(=O)N1CCn2cc(-c3cccc(C(=O)OC)c3)nc2[C@@H]1CC1CCCCC1 | 4.1 | 16.2 | 25
CC[C@H](C)[C@H](N)C(=O)N1CCn2cc(-c3ccc(C)cc3)nc2[C@@H]1CC1CCCCC1 | 31.9 | 10.9 | 9.7
CC[C@H](C)[C@H](N)C(=O)N1CCn2cc(-c3ccc(Cl)c(Cl)c3)nc2[C@@H]1CC1CCCCC1 | 13.2 | 9.9 | 6.6
CC[C@H](C)[C@H](N)C(=O)N1CCn2cc(-c3ccc(Cl)cc3)nc2[C@@H]1CC1CCCCC1 | 26.5 | 10.1 | 9.4

Structure (SMILES) | inhibition [1] [%] | IC50 [2] [µM] | IC50 [3] [µM]
CC[C@H](C)[C@H](N)C(=O)N1CCn2cc(-c3cccc(Cl)c3Cl)nc2[C@@H]1CC1CCCCC1 | 19.9 | 9.2 | 13.8
CC[C@H](C)[C@H](N)C(=O)N1CCn2cc(-c3cc(Cl)ccc3Cl)nc2[C@@H]1CC1CCCCC1 | 10.2 | 11 | 6.8
CC[C@H](C)[C@H](N)C(=O)N1CCn2cc(-c3ccc4c(c3)CCCC4)nc2[C@H]1C(C)C | 10.3 | 21.4 | 11.6
CC[C@H](C)[C@H](N)C(=O)N1CCn2cc(-c3cccc(F)c3F)nc2[C@@H]1CC1CCCCC1 | 16.3 | 25.9 | 3.2
CC[C@H](C)[C@H](N)C(=O)N1CCn2cc(-c3cccc(Cl)c3OC)nc2[C@@H]1CC1CCCCC1 | 24.2 | 7.9 | 11.3
CCC[C@H](N)CN1CCn2cc(-c3ccc4c(c3)CCCC4)nc2[C@@H]1CC1CCCCC1 | 15.9 | 9 | 2.8
CC[C@H](C)[C@H](N)C(=O)N1CCn2cc(-c3cccc(Cl)c3)nc2[C@@H]1CC1CCCCC1 | 26.2 | 11.2 | 10
CC[C@H](C)[C@H](N)CN1CCn2cc(-c3ccc4c(c3)CCCC4)nc2[C@@H]1CC1CCCCC1 | 11.9 | 17.4 | 4.8
CC[C@H](C)[C@H](N)C(=O)N1CCn2cc(-c3ccc4c(c3)CCCC4)nc2[C@@H]1C1CCCCC1 | 10.4 | 8.4 | 9.3
CC[C@H](C)[C@H](N)C(=O)N1CCn2cc(-c3cc(F)cc(Cl)c3)nc2[C@@H]1CC1CCCCC1 | 16.8 | 10.9 | 12.9
CC[C@H](C)[C@H](N)C(=O)N1CCn2cc(-c3ccc(Cl)c(C)c3)nc2[C@@H]1CC1CCCCC1 | 7.4 | 5.8 | 8.2
CCC[C@H]1c2nc(-c3ccc4c(c3)CCCC4)cn2CCN1C(=O)[C@@H](N)[C@@H](C)CC | 5.2 | 18.4 | 12.6
CC[C@H](C)[C@H](N)C(=O)N1CCn2cc(-c3ccc4ccccc4c3)nc2[C@@H]1CC1CCCCC1 | 13.1 | 15.5 | 18.8
CN1CCN(CCN2CCn3cc(-c4ccc5c(c4)CCCC5)nc3[C@@H]2CC2CCCCC2)CC1 | 8.9 | 11 | 6.5
CC[C@H](C)[C@H](N)C(=O)N1CCn2cc(-c3ccc4c(c3)CCCC4)nc2[C@@H]1CC | 11.5 | 30.2 | 22.3
c1cc2c(cc1-c1cn3c(n1)[C@H](CC1CCCCC1)N(CCN1CCCCC1)CC3)CCCC2 | 6.8 | 12.8 | 6.8
CC[C@H](C)[C@H](N)C(=O)N1CCn2cc(-c3cccc(N)c3)nc2[C@@H]1CC1CCCCC1 | 10.8 | > 40 | > 40
CN1CCC[C@H]1CN1CCn2cc(-c3ccc4c(c3)CCCC4)nc2[C@@H]1CC1CCCCC1 | 19 | 15.2 | 5
CC[C@H](C)[C@H](N)C(=O)N1CCn2cc(-c3cccc(I)c3)nc2[C@@H]1CC1CCCCC1 | 19.4 | 18.1 | 9.1
CC[C@H](C)[C@H](N)C(=O)N1CCn2cc(-c3ccccc3)nc2[C@@H]1CC1CCCCC1 | 26.6 | 24.1 | 10.5
CC[C@H](C)[C@H](N)C(=O)N1CCn2cc(-c3ccccc3Cl)nc2[C@@H]1CC1CCCCC1 | 24.4 | 11.6 | 7.9

Reference: ChEMBL document CHEMBL5352382, “Synthesis and evaluation of imidazo[1,2-a]pyrazine derivatives as small molecule Gαq/11 inhibitors against uveal melanoma” (Eur J Med Chem, 2022)
